From patent US12533425B2, “Methods and systems using peptides for targeting and mapping human nerves in image guided surgery, diagnostics and therapeutic delivery” (ALUME BIOSCIENCES, INC., priority 2019, dated 2026)
No end group written: not given here.

How the values were obtained:
[1] = Fluorescent plate reader assay of quenching of FAM-NP41 fluorescence by food dyes
Excerpt: (§1) FIGS. 21A-21C: Food dyes efficiently quench FAM-NP41 bladder fluorescence. A fluorescent plate reader assay was used to show dose dependent quenching of FAM-NP41 fluorescence. Erythrosine extra bluish (Santa Cruz Biotechnology, Inc.) was the most efficient quencher with >˜80% quenching at 2.5 times dye to fluorescein ratio and >95% quenching at 5× dye to fluorescein ratio (A). Other food dyes tested included Allura Red and Sunset Yellow. To test for quenching in-vivo we administered, by direct iv injection, 50 mg/kg MW 879.76 (˜1.5 μmoles per 25 gm mouse) to mice that had been injected with 150 nmoles of FAM-NP41 2 hours prior. This represents approximately a 10× dye to FAM-NP41 dose. Some bladder fluorescence remained after imaging so additional dye (30 μl, 10 mM Erythrosin extra bluish) was injected directly into the bladder. […] Dye would likely not be needed if this method was used for human patients as bladder catheterization in patients could be started as FAM-NP41 is administered so bladder fluorescence could be washed out.

[2] = system: bladder fluorescence; assay: In-vivo quenching of FAM-NP41 bladder fluorescence; set-up: species or system mouse; conditions: 50 mg/kg i.v. plus 30 μl 10 mM intra bladder, 150 nmoles FAM-NP41 2 hours prior
Excerpt: as §1

[3] = system: human sural nerve; assay: Topical application of FAM-labelled peptides on sections of human sural nerve and temporalis muscle; assay type: binding; conditions: for normalized average signal intensity for nerve binding: normalized to parent FAM-HNP401, topical 100 μM, human sural nerve sections; for effect of truncation on binding and solubility: deletion from C terminus of HNP401; for nerve binding and nerve to muscle contrast (words): topical 100 μM, human nerve and temporalis muscle sections
Excerpt: To determine the affinity of phage selected peptides for binding to human nerve they were chemically synthesized by solid-phase synthesis and labeled with fluorescein at the C-terminus via a GGC linker. Peptides were topically applied to sectioned human sural nerve and human temporalis muscle to determine nerve to muscle contrast. […] To confirm binding and contrast of HNP401 for additional nerve types binding was compared in nerve and muscle with both HNP401 and NP41 on facial brachial plexus nerve (FIG. 9). […] FAM-HNP401 was additionally tested topically on ex-vivo tissue for labeling of mouse facial nerve with surrounding muscle (FIG. 10, J-M).
To test the affinity of selected phage display peptides for binding to human nerves, they were chemically synthesized by solid-phase synthesis and labeled with fluorescein at the C-terminus. Peptides were topically applied to sections of surgically harvested human sural nerve and temporalis muscle to determine nerve to muscle contrast for selected peptides and controls (FIG. 23). […] To quantify differential binding to nerve versus muscle, fluorescence signal intensity was measured for ROIs from the perineurium of select nerves and human temporalis muscle.
To enhance and attempt to determine the core binding domain of HNP401, systematic deletion of two amino acids from the C or N terminus was performed (see, for example, FIG. 30) followed by binding analysis on human sural nerve sections (FIG. 20). In each case nerve binding and signal intensity was normalized to the parent FAM-HNP401 peptide (FIG. 20J).
Image J was used to analyze and compare images acquired using the confocal microscope and the Lumar dissecting scope. For each experimental set where probes were compared, we kept the acquisition parameters identical so as to directly compare the data obtained. […] All raw image files for a given experimental cohort were loaded at the same time into Image J as 16-bit tiff images. We then levelled the image for tissue treated with FAM-HNP401. Once these levels were set, the settings are propagated to all images in one step using Image J. The brightest image is set as the benchmark for all other images in the cohort to avoid saturating when the leveling is propagated.

[4] = system: rat prostate cavernosal nerve; assay: In-vivo labelling of rat prostate and sciatic nerve; conditions: i.v., FAM-labelled peptide
Procedure: FIG. 6: Fluorescent labeling of rat prostate cavernosal nerve in live rats.
Either 150 or 450 nmoles nmoles of fluorescein labeled synthetic peptides were injected intravenously into mice. After a 2 hour waiting period for washout of nonspecific binding, mice were anesthetized and skin incisions were made over the dorsal surface of the hind legs to expose the sciatic nerve. Brightfield and fluorescent images were obtained with a dissecting microscope using Metamorph software (FIG. 1). Quantitation of fluorescence of nerves and adjacent non-nerve tissue was performed with Image J (FIG. 2). Peptides were also topically applied to human nerve sections. […]
Following anesthesia with intra-peritoneal injection of ketamine (80 mg/kg) and midazolam (40 mg/kg), FAM-NP41 or its variants were administered into mice retro-orbitally. […] The autonomic nerve along the cavernosal vessel in the prostate was imaged and recorded using a custom-made surgical imaging system. This system is a modified from Olympus MVX10 scope capable of hi-resolution fluorescence, RGB reflectance and realtime overlay with zoom from 0.6 to 5.7 cm field of view. ImageJ was used for quantitative analysis of nerve contrast for each peptide dye conjugate tested. Images of autonomic nerve in prostate were selected from the recorded files and magnified 300-400% prior to selection of ROI and measurement. […]

O=C1OC2(c3ccccc31)c1cc(I)c(O)c(I)c1Oc1c2cc(I)c(O)c1I [Erythrosine extra bluish]
quenching of FAM-NP41 fluorescence ([1]; 2.5 times dye to fluorescein ratio): > 80% | quenching of FAM-NP41 fluorescence ([1]; 5× dye to fluorescein ratio): > 95% | bladder fluorescence after quencher [2]: near background level

Ac-EEPYYVVKKSSGGC [HNP401-N-6, with GGC linker, tested FAM labelled]
normalized average signal intensity for nerve binding [3]: 1.0±0.34

Ac-PWEEPYYVVKKSSGGC [HNP401-N-4, with GGC linker, tested FAM labelled]
normalized average signal intensity for nerve binding [3]: 0.56±0.18

Ac-PYYVVKKSSGGC [HNP401-N-8, with GGC linker, tested FAM labelled]
normalized average signal intensity for nerve binding [3]: 0.98±0.31

Ac-QVPWEEPYYVVKKSSGGC [HNP401-N-2, with GGC linker, tested FAM labelled]
normalized nerve to temporalis muscle contrast, increase with respect to FAM-HNP401 ([3]; human sural nerve vs temporalis muscle): 3 fold | normalized average signal intensity for nerve binding [3]: 2.02±0.65 | average signal intensity, nerve binding of deletion variants ([3]; topical 100 uM FAM labelled, human nerve sections, n=5): 1498.73 (+/−517.63)

Ac-SGQVPWEEPYYVVGGC [HNP401-C-4, with GGC linker, tested FAM labelled]
effect of truncation on binding and solubility [3]: reduced dramatically | normalized average signal intensity for nerve binding [3]: 0.49±0.11

Ac-SGQVPWEEPYYVVKKGGC [HNP401-C-2, with GGC linker, tested FAM labelled]
effect of truncation on binding and solubility [3]: tolerated

SEFPRSWDMETN [HNP301]
fluorescent labeling of rat prostate and sciatic nerve in live rats [4]: not showing as much contrast

carboxyfluorescein [reference compound]
nerve binding and nerve to muscle contrast (words) [3]: only weak non-specific binding | nerve binding and nerve to muscle contrast (words) ([3]; listed as Carboxyfluorescein): low signal and non-specific binding
